Experimental data from patent EP1060162B1, “URETHANES DERIVED FROM AZACYCLOALKANES, THIO AND DITHIO ANALOGUES, PRODUCTION AND USE THEREOF AS 2,3 EPOXYSQUALENE LANESTEROL CYCLASE INHIBITORS” (Boehringer Ingelheim Pharma KG, priority 1997, dated 1999).
Counter-ions that a name gives are not always drawn. Like-named read-outs stand apart in the source and are kept apart here.

Tests used:
[1] = target: T1, ^14C-Acetat-Einbau in die mit Digitonin fällbaren Steroide (Homo sapiens, UniProt P48449); experiment: Inhibition of 14C-acetate incorporation into digitonin-precipitable steroids; type: cell-based; conditions: read-out: Prozentwerte, um die die Verbindungen den ^14C-Acetat-Einbau hemmen
T1 sequence (P48449 2-732): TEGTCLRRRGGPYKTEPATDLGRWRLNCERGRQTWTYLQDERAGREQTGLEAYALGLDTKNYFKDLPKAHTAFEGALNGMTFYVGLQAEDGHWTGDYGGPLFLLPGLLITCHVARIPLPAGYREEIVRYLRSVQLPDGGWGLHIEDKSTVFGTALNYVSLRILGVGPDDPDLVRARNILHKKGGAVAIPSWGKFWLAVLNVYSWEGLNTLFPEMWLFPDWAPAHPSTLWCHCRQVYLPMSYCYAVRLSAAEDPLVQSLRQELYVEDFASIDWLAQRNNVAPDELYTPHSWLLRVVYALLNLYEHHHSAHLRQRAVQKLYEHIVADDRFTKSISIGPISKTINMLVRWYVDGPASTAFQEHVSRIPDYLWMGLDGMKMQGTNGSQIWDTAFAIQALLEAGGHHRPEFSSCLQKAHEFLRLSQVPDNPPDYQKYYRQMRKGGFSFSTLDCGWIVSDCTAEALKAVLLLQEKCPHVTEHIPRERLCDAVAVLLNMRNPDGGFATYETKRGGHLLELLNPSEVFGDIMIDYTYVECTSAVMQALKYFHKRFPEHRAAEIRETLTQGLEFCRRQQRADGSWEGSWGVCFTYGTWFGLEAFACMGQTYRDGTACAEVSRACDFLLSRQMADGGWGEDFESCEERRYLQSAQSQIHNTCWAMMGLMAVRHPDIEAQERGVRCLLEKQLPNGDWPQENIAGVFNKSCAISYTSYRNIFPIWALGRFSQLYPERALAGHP
Description: I. Messung der Hemmung des ^14C-Acetat-Einbaus in die mit Digitonin fällbaren Steroide:
Die Untersuchung der Hemmwirkung wurde nach der in J. Lipid. Res. 37, 148-157 [1996] beschriebenen Methode bei Testkonzentrationen von 10^-8 und 10^-9 Mol/l durchgeführt.
Die Prozentwerte, um die obigen Verbindungen den ^14C-Acetat-Einbau hemmen, sind in Tabelle 1 angegeben.

[2] = test system: 2,3-Epoxisqualen-Lanosterol-Cyclase; experiment: In-vivo effect in the rat after oral administration: 2,3-epoxysqualene level in the liver; design: species or system Ratte
Method: II. Messung der in-vivo Wirkung an der Ratte nach oraler Gabe
Die Inhibierung des Enzyms 2,3-Epoxisqualen-Lanosterol-Cyclase bewirkt eine Erhöhung der 2,3-Epoxisqualenspiegel in Leber und Plasma. Die Menge an gebildetem 2,3-Epoxisqualen dient daher als direktes Maß für die Wirkstärke am Ganztier.Die Bestimmung wurde nach der in J. Lipid. Res. 38, 564-575, [1997] beschriebenen Methode nach t = 3 bzw. 8 Stunden nach Substanzgabe mit Konzentrationen von c = 0.01, 0.03, 0.1, 0.3 und 1.0 mg/kg durchgeführt. In der folgenden Tabelle 3 sind beispielhaft die Ergebnisse für die vorstehend erwähnten Substanzen A, B, C, D, E, G, H, I und K angegeben.

[3] = test system: Asp. niger ATCC 16404; experiment: Fungistatic effect, serial dilution test (microtitre system); type: cell-based; conditions: Aspergillus niger
Method: (§1) IV. Bestimmung der fungistatischen Wirkung
(§2) Die fungistatische Wirkung wurde über den Reihenverdünnungstest (Mikrotitersystem) bestimmt. Als Nährmedium diente Sabouraud-Bouillon. Das Inoculum betrug ca. 10^4 bis 10^5 KBE/ml (KBE = koloniebildende Einheiten); die Bebrütungszeit betrug 2 bis 4 Tage bei 26°C.
(§3) Es wurde die niedrigste Konzentration, die sichtbares Wachstum nicht mehr zuließ (minimale Hemmkonzentration MHK), bestimmt.
(§4) Geprüft wurden die vorstehend erwähnten Verbindungen A, B, D, E, F, H, I, K, L und M. Die Ergebnisse sind in der folgenden Tabelle 5 zusammengefaßt. Die MHK ist in µg/ml angegeben.

[4] = test system: Sacch. carlsbergensis ATCC 9080; experiment: as above; type: cell-based; conditions: Saccharomyces pastorianus
Method: as §1, §2, §3, §4

[5] = test system: Cand. albicans ATCC 10231; experiment: as above; type: cell-based; conditions: Candida albicans
Method: as §1, §2, §3, §4

[6] = test system: Pen.notatum CBS 19746; experiment: as above; type: cell-based; conditions: Penicillium chrysogenum
Method: as §1, §2, §3, §4

[7] = test system: Rhod. rubra 49; experiment: as above; type: cell-based; conditions: read-out: MHK
Method: as §1, §2, §3, §4

[8] = test system: Trich. mentagrophytes ATCC 9129; experiment: as above; type: cell-based; conditions: Trichophyton mentagrophytes
Method: as §1, §2, §3, §4

[9] = Lipid lowering in the normolipaemic golden hamster; type: in vivo, Goldhamster; conditions: Dosis 57.5 mg/kg/Tag; compared with control group fed without test substance
Description: III. Lipidsenkung am normolipämischen Goldhamster.
Diese Bestimmung wurde nach der in J. Lipid. Res. 38, 564-575, (1997) beschriebenen Methode durchgeführt. Am Ende des Versuchs wurde Gesamtcholesterol, β-Lipoprotein-Cholesterol sowie HDL-Cholesterol bestimmt und mit den Werten einer ohne Testsubstanz gefütterten Kontrollgruppe verglichen.

[10] = ATCC16404, Asp., Sabouraud-Bouillon, 2 bis 4 Tage bei 26°C, read-out: MHK
[11] = ATCC9080, Sacc., Sabouraud-Bouillon, 2 bis 4 Tage bei 26°C, read-out: MHK
[12] = ATCC10231, Cand., Sabouraud-Bouillon, 2 bis 4 Tage bei 26°C, read-out: MHK
[13] = CBS19746, Pen., Sabouraud-Bouillon, 2 bis 4 Tage bei 26°C, read-out: MHK
[14] = Rhod., Sabouraud-Bouillon, 2 bis 4 Tage bei 26°C
[15] = ATCC9129, Trich., Sabouraud-Bouillon, 2 bis 4 Tage bei 26°C, read-out: MHK

Row | SMILES | inhibition at 0.01 µM ([1]; Testkonzentration 10^-8 Mol/l) | inhibition at 0.001 µM ([1]; Testkonzentration 10^-9 Mol/l) | 2,3-Epoxysqualen-Konzentration in der Leber (Ratte) ([2]; c = 0.1 mg/kg, t = 3 h) | 2,3-Epoxysqualen-Konzentration in der Leber (Ratte) ([2]; c = 0.1 mg/kg, t = 8 h) | 2,3-Epoxysqualen-Konzentration in der Leber (Ratte) ([2]; c = 1.0 mg/kg, t = 3 h) | 2,3-Epoxysqualen-Konzentration in der Leber (Ratte) ([2]; c = 1.0 mg/kg, t = 8 h) | MIC [3, 10] | MIC [4, 11] | MIC [5, 12] | MIC [6, 13] | MIC [7, 14] | MIC [8, 15] | other results
1 | CN(C)Cc1ccc(CC2CCN(C(=S)Oc3ccc(Cl)cc3)CC2)cc1 [G, N-(4-Chlorphenoxy)thiocarbonyl-4-[4-(dimethylaminomethyl)-benzyl]piperidin-hydrochlorid] | 83% | 56% | 10.3 µg/g | 11.5 µg/g | 87.4 µg/g | 134.2 µg/g |  |  |  |  |  |  | 
2 | CN(C)Cc1ccc([C@H]2CC[C@H](N(C)C(=O)c3ccc(Cl)cc3)CC2)cc1 [V, reference compound] | 59% | 23% |  |  |  |  |  |  |  |  |  |  | 
3 | CN(C)Cc1ccc(C=C2CCN(C(=S)SCc3ccccc3)CC2)cc1.Cl [F, N-(Benzylthio)thiocarbonyl-4-[4-(dimethylaminomethyl)-benzyliden]piperidin-hydrochlorid] | 84% | 45% |  |  |  |  | 8 µg/mL | 16 µg/mL | 16 µg/mL | 4 µg/mL | 4 µg/mL | 2 µg/mL | 
4 | Cc1ccc(OC(=S)N2CCC(Cc3ccc(CN(C)C)cc3)CC2)cc1.Cl [L, 4-[4-(Dimethylaminomethyl)benzyl] -N-(4-methylphenoxy) - thiocarbonylpiperidin-hydrochlorid] | 88% | 64% |  |  |  |  | 64 µg/mL | 64 µg/mL | 32 µg/mL | 32 µg/mL | 8 µg/mL | 1 µg/mL | 
5 | CN(C)Cc1ccc(SC2CCN(C(=O)Oc3ccc(Cl)cc3)CC2)cc1 [D, N-(4-Chlorphenoxy)carbonyl-4-[4-(dimethylaminomethyl)-phenylthio]piperidin-hydrochlorid] |  |  | 1.4 µg/g | 1.8 µg/g |  |  |  |  |  |  |  |  | MIC ([3]; ATCC16404, read-out: MHK): 256 µg/mL; MIC ([4]; ATCC9080, read-out: MHK): 128 µg/mL; MIC ([5]; ATCC10231, read-out: MHK): 64 µg/mL; MIC ([6]; CBS19746, read-out: MHK): 128 µg/mL; MIC [7]: 64 µg/mL; MIC ([8]; ATCC9129, read-out: MHK): 16 µg/mL; inhibition at 0.001 µM [1]: 55%; inhibition at 0.01 µM [1]: 86%; 2,3-Epoxysqualen-Konzentration in der Leber (Ratte) ([2]; c = 0.01 mg/kg, t = 3 h): 1.3 µg/g; 2,3-Epoxysqualen-Konzentration in der Leber (Ratte) ([2]; c = 0.01 mg/kg, t = 8 h): 1.0 µg/g
6 | Cc1ccc(CC(=O)O[C@H]2CC[C@H](c3ccc(CN(C)C)cc3)CC2)cc1 [W, trans-O-(p-Tolylacetyl)-4-(4-dimethylaminomethylphenyl)-cyclohexanol, reference compound] | 72% | 21% |  |  |  |  |  |  |  |  |  |  | 
7 | CN(C)Cc1ccc(SC2CCN(C(=O)OCc3ccccc3)CC2)cc1.Cl [C, N-Benzyloxycarbonyl-4-[4-(dimethylaminomethyl)phenylthio]-piperidin-hydrochlorid] | 78% | 57% | 0.5 µg/g | 1.3 µg/g | 3.8 µg/g | 2.0 µg/g |  |  |  |  |  |  | 2,3-Epoxysqualen-Konzentration in der Leber (Ratte) ([2]; c = 0.01 mg/kg, t = 3 h): 0.6 µg/g; 2,3-Epoxysqualen-Konzentration in der Leber (Ratte) ([2]; c = 0.01 mg/kg, t = 8 h): 3.0 µg/g; 2,3-Epoxysqualen-Konzentration in der Leber (Ratte) ([2]; c = 0.3 mg/kg, t = 3 h): 0.5 µg/g; 2,3-Epoxysqualen-Konzentration in der Leber (Ratte) ([2]; c = 0.3 mg/kg, t = 8 h): 1.8 µg/g
8 | CN(C)Cc1ccc(SC2CCN(C(=S)SCc3ccccc3)CC2)cc1.Cl [Verbindung A, N-(Benzylthio)thiocarbonyl-4-[4-(dimethylaminomethyl)-phenylthio]piperidin-hydrochlorid] | 85% | 53% |  |  | 9.3 µg/g | 9.8 µg/g | 8 µg/mL | 8 µg/mL | 16 µg/mL | 4 µg/mL | 16 µg/mL | 1 µg/mL | 2,3-Epoxysqualen-Konzentration in der Leber (Ratte) ([2]; c = 0.3 mg/kg, t = 3 h): 2.0 µg/g; 2,3-Epoxysqualen-Konzentration in der Leber (Ratte) ([2]; c = 0.3 mg/kg, t = 8 h): 1.2 µg/g
9 | CN(C)Cc1ccc(CC2CCN(C(=O)Oc3ccc(F)cc3)CC2)cc1 [M, 4-[4-(Dimethylaminomethyl)benzyl]-N-(4-fluorphenoxy)-carbonylpiperidin-hydrochlorid] |  |  |  |  |  |  |  |  |  |  |  |  | Gesamtcholesterol [9]: -26.8%; HDL-Cholesterol [9]: -20.4%; β-Lipoprotein-Cholesterol [9]: -31.6%; MIC ([3]; ATCC16404, read-out: MHK): 64 µg/mL; MIC ([4]; ATCC9080, read-out: MHK): 512 µg/mL; MIC ([5]; ATCC10231, read-out: MHK): 128 µg/mL; MIC ([6]; CBS19746, read-out: MHK): 512 µg/mL; MIC [7]: 32 µg/mL; MIC ([8]; ATCC9129, read-out: MHK): 2 µg/mL; inhibition at 0.001 µM [1]: 59%; inhibition at 0.01 µM [1]: 84%
10 | CN(C)Cc1ccc(C(=O)C2CCN(C(=S)SCc3ccccc3)CC2)cc1.Cl [B, N-(Benzylthio) thiocarbonyl-4-[4-(dimethylaminomethyl)benzoyl]piperidin-hydrochlorid] | 85% | 47% |  |  | 39.2 µg/g | 42.0 µg/g | 32 µg/mL | 32 µg/mL | 64 µg/mL | 8 µg/mL | 16 µg/mL | 2 µg/mL | 2,3-Epoxysqualen-Konzentration in der Leber (Ratte) ([2]; c = 0.3 mg/kg, t = 3 h): 4.5 µg/g; 2,3-Epoxysqualen-Konzentration in der Leber (Ratte) ([2]; c = 0.3 mg/kg, t = 8 h): 5.8 µg/g
11 | CN(C)Cc1ccc(CC2CCN(C(=S)SCc3ccccc3)CC2)cc1.Cl [E, N-(Benzylthio)thiocarbonyl-4-[4-(dimethylaminomethyl)-benzyl]piperidin-hydrochlorid] | 87% | 47% | 5.6 µg/g | 4.4 µg/g |  |  | 8 µg/mL | 16 µg/mL | 16 µg/mL | 1 µg/mL | 4 µg/mL | 1 µg/mL | 2,3-Epoxysqualen-Konzentration in der Leber (Ratte) ([2]; c = 0.01 mg/kg, t = 3 h): 0.9 µg/g; 2,3-Epoxysqualen-Konzentration in der Leber (Ratte) ([2]; c = 0.01 mg/kg, t = 8 h): 1.0 µg/g
